Measurements: the NIST ThermoML archive (doi:10.1016/j.fluid.2014.02.029)
Numbers after ± are expanded uncertainties.

Conditions: 100 kPa, Liquid, Vibrating tube method

Row | SMILES | mass density (293.15 K) [kg/m3] | mass density (303.15 K) [kg/m3] | mass density (313.15 K) [kg/m3] | mass density (323.15 K) [kg/m3] | mass density (333.15 K) [kg/m3]
1 | CCCCOCCOC(C)=O [2-butoxyethyl acetate] | 940.7 ± 0.77 | 930.89 ± 0.76 | 921.05 ± 0.75 | 911.18 ± 0.74 | 901.29 ± 0.73
2 | CCOCCOCCOC(C)=O [2-(2-ethoxyethoxy)ethyl acetate] | 1009.46 ± 0.25 | 999.19 ± 0.24 | 988.92 ± 0.24 | 978.66 ± 0.24 | 968.38 ± 0.24
